Experimental data reported in ChEMBL document CHEMBL5465560, “Selectivity Literature for EUbOPEN Chemogenomic Library” (2024).

Columns and labels:
[1] = biological target: T1, Serine/threonine-protein kinase Nek2 (Homo sapiens) (UniProt P51955); settings: at 10 µM
T1 sequence (whole entry): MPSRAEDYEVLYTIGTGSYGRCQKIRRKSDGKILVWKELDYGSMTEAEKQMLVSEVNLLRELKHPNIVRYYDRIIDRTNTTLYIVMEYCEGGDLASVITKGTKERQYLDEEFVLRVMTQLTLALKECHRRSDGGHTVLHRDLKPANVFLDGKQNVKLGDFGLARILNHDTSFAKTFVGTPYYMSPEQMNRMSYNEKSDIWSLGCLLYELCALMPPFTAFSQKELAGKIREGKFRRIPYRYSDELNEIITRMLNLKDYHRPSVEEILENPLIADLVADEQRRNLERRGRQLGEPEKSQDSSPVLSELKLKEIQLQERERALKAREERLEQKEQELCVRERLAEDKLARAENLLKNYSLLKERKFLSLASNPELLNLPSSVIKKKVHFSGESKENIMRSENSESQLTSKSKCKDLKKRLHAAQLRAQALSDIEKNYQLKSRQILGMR

[2] = biological target: Cyclin-dependent kinase-like 3 (Homo sapiens) (UniProt Q8IVW4); experiment: Selectivity interaction (KinomeScan (DiscoverX)) EUB0000229b CDKL3; settings: at 10 µM
[3] = biological target: Tyrosine-protein kinase FRK (Homo sapiens) (UniProt P42685); experiment: Selectivity interaction (KinomeScan (DiscoverX)) EUB0000229b FRK; settings: at 10 µM
[4] = biological target: Tyrosine-protein kinase Fes/Fps (Homo sapiens) (UniProt P07332); experiment: Selectivity interaction (Upstate Kinase Profiler service (Millipore)) EUB0000056c FES; settings: at 1 µM
[5] = biological target: Activin receptor type-2A (Homo sapiens) (UniProt P27037); experiment: Selectivity interaction (ProQinase) EUB0000171b ACVR2A
[6] = biological target: Serine/threonine-protein kinase 38-like (Homo sapiens) (UniProt Q9Y2H1); experiment: Selectivity interaction (ActivX KiNativ screen (kinase selectivity in THP-1 cell lysates)) EUB0000639a STK38L; format: subcellular; settings: lysate, at 0.01 µM
[7] = biological target: Ribosomal protein S6 kinase alpha-1 (Homo sapiens, UniProt Q15418); experiment: Selectivity interaction (ActivX KiNativ screen (kinase selectivity in THP-1 cell lysates)) EUB0000639a RPS6KA1; format: subcellular; settings: lysate
[8] = biological target: Serine/threonine-protein kinase WNK1 (Homo sapiens) (UniProt Q9H4A3); experiment: Selectivity interaction (ActivX KiNativ screen (kinase selectivity in THP-1 cell lysates)) EUB0000639a WNK1; format: subcellular; settings: lysate, at 0.2 µM
[9] = system: Epidermal growth factor receptor (Homo sapiens), P00533 [G719C]; experiment: (§1) Selectivity interaction (KinomeScan (DiscoverX)) EUB0001049a EGFR; settings: at 1 µM
[10] = system: Epidermal growth factor receptor (Homo sapiens), P00533 [G719S]; experiment: as §1; settings: at 1 µM
[11] = system: Epidermal growth factor receptor (Homo sapiens), P00533 [L858R,T790M]; experiment: as §1; settings: at 1 µM
[12] = system: Epidermal growth factor receptor (Homo sapiens), P00533 [L858R]; experiment: as §1; settings: at 1 µM
[13] = system: Epidermal growth factor receptor (Homo sapiens), P00533 [L861Q]; experiment: as §1; settings: at 1 µM
[14] = system: Epidermal growth factor receptor (Homo sapiens), P00533 [T790M]; experiment: as §1; settings: at 1 µM
[15] = system: Epidermal growth factor receptor (Homo sapiens), P00533 [UNDEFINED MUTATION]; experiment: as §1; settings: at 1 µM
[16] = biological target: Epidermal growth factor receptor (Homo sapiens, UniProt P00533); experiment: as §1; settings: at 1 µM
[17] = biological target: Mitogen-activated protein kinase 10 (Homo sapiens, UniProt P53779); experiment: Selectivity interaction (KinomeScan (DiscoverX)) EUB0001049a MAPK10; settings: at 1 µM
[18] = biological target: T2, Serine/threonine-protein kinase D3 (Homo sapiens) (UniProt O94806); experiment: Selectivity interaction (KinomeScan (DiscoverX)) EUB0001049a PRKD3; settings: at 1 µM
T2 sequence (whole entry): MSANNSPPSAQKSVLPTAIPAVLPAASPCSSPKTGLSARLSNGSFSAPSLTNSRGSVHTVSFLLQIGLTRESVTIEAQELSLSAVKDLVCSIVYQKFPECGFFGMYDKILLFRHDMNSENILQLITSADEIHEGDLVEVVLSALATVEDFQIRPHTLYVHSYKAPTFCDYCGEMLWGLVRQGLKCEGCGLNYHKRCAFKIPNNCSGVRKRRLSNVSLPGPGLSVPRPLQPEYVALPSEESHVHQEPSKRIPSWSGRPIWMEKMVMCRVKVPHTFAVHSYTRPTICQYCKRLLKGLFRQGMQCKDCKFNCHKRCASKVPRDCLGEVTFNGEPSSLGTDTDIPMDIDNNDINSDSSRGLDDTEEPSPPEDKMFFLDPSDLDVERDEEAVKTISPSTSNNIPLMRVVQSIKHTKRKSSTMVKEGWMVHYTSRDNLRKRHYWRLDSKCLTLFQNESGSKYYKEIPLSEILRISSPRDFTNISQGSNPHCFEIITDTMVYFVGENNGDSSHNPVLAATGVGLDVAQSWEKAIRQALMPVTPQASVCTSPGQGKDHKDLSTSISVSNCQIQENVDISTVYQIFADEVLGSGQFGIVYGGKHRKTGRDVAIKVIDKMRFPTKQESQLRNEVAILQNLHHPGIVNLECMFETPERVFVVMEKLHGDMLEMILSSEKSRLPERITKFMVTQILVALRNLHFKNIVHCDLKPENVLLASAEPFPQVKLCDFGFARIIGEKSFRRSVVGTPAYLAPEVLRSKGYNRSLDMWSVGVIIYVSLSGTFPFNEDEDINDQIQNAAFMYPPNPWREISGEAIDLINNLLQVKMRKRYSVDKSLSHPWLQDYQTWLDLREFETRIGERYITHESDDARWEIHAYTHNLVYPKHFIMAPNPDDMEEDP

[19] = biological target: Serine/threonine-protein kinase WNK1 (Homo sapiens) (UniProt Q9H4A3); experiment: Selectivity interaction (KinomeScan (DiscoverX)) EUB0000695a WNK1; settings: at 100 nM
[20] = biological target: Mitogen-activated protein kinase kinase kinase 10 (Homo sapiens) (UniProt Q02779); experiment: Selectivity interaction (KinomeScan (DiscoverX)) EUB0000595a MAP3K10; settings: at 10 µM

Sequence of Ribosomal protein S6 kinase alpha-1 (Q15418 whole entry): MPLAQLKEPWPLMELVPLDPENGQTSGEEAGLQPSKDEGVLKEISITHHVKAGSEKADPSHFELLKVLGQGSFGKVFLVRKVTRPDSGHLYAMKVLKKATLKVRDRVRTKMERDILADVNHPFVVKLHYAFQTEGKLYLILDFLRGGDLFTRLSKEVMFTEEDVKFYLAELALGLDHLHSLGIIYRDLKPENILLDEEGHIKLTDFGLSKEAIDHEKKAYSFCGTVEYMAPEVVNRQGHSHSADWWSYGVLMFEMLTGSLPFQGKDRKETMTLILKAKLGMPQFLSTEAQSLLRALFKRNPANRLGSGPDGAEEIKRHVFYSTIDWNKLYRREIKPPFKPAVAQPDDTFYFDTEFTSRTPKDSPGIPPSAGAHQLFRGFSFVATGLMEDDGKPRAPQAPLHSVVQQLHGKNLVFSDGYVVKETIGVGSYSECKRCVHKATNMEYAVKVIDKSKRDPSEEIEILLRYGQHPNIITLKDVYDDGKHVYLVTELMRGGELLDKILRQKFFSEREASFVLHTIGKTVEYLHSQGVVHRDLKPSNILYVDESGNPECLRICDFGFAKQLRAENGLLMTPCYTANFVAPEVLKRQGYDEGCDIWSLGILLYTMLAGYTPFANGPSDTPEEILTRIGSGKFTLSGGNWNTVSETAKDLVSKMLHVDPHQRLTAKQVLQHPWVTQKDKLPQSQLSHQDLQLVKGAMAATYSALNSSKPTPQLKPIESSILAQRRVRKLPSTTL
Sequence of Serine/threonine-protein kinase WNK1 (Homo sapiens) (Q9H4A3 whole entry, looked up): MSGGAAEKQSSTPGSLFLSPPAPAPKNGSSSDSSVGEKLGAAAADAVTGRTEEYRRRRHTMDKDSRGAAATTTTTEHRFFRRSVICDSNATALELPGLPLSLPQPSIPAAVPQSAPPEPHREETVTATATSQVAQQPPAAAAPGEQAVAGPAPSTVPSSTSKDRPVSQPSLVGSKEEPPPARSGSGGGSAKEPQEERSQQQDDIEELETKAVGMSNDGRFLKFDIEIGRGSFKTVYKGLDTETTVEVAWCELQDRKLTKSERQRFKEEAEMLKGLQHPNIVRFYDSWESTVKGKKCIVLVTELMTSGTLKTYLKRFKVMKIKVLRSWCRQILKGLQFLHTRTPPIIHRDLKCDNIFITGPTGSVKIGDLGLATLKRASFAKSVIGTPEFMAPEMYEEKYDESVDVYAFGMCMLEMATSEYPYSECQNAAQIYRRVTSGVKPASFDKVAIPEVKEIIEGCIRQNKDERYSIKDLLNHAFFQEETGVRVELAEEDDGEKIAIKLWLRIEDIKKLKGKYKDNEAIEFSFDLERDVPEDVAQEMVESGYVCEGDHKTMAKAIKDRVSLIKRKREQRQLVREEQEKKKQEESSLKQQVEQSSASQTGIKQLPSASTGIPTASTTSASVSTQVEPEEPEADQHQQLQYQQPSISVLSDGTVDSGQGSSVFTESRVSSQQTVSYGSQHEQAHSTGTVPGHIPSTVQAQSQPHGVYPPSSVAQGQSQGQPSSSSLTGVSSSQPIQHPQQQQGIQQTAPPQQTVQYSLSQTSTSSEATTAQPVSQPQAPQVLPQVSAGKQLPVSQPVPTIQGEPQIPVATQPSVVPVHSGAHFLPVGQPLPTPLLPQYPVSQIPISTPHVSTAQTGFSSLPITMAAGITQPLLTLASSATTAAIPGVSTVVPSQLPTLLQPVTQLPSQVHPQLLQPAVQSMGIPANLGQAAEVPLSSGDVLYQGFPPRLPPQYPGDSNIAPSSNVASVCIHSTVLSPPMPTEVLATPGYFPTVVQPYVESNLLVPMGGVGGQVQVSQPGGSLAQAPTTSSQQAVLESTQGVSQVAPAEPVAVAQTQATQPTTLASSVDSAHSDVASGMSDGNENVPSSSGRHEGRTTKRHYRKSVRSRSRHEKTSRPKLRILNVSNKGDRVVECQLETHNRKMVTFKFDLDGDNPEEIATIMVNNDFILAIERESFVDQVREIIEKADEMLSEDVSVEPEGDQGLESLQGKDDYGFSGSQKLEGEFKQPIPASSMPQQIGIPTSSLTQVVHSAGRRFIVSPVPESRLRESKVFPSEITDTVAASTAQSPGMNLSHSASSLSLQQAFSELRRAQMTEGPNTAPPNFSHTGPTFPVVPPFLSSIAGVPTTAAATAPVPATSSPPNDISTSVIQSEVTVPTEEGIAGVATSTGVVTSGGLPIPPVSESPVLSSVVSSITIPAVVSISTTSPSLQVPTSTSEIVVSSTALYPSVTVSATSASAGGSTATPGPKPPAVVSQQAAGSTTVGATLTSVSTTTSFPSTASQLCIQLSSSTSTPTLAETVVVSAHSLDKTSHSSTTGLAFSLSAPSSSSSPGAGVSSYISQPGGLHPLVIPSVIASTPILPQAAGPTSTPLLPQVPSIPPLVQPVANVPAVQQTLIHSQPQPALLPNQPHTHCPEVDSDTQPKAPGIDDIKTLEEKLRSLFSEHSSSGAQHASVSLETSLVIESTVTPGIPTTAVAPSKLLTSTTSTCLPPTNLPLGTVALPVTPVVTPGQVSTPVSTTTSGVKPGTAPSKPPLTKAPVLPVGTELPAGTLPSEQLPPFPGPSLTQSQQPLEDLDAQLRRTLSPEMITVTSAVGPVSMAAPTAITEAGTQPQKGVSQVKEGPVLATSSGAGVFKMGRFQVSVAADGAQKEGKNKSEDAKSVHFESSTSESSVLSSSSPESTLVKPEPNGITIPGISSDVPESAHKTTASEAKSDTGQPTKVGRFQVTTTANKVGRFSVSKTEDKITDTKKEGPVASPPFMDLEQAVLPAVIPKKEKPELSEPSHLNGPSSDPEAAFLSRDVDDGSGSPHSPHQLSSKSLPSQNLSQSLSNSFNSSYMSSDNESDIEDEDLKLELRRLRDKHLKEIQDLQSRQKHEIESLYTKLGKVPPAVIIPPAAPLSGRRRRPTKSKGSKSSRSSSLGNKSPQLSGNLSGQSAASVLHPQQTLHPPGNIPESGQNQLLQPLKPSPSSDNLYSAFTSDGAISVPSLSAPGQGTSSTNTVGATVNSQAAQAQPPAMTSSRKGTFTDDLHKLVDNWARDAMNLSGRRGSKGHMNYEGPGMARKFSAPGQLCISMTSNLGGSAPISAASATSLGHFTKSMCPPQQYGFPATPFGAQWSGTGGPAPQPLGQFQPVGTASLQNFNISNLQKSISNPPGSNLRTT
Sequence of Activin receptor type-2A (Homo sapiens) (P27037 whole entry): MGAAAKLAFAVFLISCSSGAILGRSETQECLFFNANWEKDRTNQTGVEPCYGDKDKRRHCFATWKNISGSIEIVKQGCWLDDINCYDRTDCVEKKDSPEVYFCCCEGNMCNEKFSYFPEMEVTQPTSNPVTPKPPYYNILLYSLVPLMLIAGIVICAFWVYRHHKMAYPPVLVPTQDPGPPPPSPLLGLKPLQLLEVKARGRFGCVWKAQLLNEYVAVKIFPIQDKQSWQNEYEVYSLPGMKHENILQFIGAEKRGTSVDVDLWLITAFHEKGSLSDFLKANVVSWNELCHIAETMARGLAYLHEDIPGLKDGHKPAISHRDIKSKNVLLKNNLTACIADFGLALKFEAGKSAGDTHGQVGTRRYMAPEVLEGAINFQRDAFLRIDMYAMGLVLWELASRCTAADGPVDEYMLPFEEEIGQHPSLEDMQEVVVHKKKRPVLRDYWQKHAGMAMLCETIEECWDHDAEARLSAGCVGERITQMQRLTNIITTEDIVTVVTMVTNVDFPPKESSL
Sequence of Epidermal growth factor receptor (Homo sapiens), P00533 [UNDEFINED MUTATION] (P00533 whole entry, looked up, change not shown): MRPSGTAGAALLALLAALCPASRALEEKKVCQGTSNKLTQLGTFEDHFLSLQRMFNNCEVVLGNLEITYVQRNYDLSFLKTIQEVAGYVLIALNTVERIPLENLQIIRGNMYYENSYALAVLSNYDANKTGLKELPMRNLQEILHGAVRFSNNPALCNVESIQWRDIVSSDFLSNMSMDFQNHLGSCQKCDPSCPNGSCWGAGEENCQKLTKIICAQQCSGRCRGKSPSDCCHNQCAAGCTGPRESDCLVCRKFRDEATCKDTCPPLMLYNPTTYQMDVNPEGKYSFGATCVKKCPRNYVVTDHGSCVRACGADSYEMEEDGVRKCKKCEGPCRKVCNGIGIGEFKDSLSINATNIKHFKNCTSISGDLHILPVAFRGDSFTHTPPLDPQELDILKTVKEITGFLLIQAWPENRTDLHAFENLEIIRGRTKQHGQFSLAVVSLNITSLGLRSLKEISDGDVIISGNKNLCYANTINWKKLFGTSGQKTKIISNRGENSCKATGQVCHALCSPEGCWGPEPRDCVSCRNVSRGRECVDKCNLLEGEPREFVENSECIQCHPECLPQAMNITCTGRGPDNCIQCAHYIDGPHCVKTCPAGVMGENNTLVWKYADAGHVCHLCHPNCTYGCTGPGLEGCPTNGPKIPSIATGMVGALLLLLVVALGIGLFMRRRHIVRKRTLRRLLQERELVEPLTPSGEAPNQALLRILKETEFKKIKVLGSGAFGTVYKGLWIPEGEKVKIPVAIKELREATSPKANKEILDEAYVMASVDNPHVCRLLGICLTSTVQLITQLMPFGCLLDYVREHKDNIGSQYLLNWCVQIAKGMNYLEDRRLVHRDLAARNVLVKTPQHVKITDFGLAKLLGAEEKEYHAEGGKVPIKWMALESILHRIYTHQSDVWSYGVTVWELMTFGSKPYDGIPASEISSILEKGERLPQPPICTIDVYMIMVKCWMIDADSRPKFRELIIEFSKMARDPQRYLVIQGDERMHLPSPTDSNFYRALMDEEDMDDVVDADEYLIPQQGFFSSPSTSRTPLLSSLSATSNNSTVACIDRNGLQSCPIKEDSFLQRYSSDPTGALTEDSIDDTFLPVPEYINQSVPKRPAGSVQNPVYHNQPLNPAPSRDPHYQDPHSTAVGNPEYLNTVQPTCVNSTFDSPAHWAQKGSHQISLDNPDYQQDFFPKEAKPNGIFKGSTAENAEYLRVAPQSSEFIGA

CCN(CC)CCCCNc1ncc2cc(-c3cc(OC)cc(OC)c3)c(NC(=O)NC(C)(C)C)nc2n1
% of control [1]: 100%

COc1cc(N(C)c2ccnc3ccc(C(F)(F)F)cc23)cc(OC)c1OC
% binding [2]: 88% | % binding [3]: 95%

Cc1ccc(-c2ccc3c(ccc4sc5c(c43)NC[C@@H](C)NC5=O)n2)cn1
% of inhibition [4]: -3%

C=CC(=O)Nc1cccc(C(=O)Nc2ccc(Nc3cc(-c4[nH]c(SC)nc4C)ccn3)cc2)c1
% of control ([5]; at 1 µM): 81% | % of control ([5]; at 5 µM): 80%

CC[C@@H]1[C@H](F)C(=O)N[C@@H]1COc1nccc2cc(C(N)=O)c(OC)cc12 [ZIMLOVISERTIB]
% of inhibition [6]: 2.6% | % of inhibition ([7]; at 0.01 µM): 18.6% | % of inhibition ([7]; at 0.04 µM): 18% | % of inhibition ([7]; at 0.2 µM): 14.6% | % of inhibition ([7]; at 1 µM): 14.7% | % of inhibition ([7]; at 5 µM): 7.3% | % of inhibition [8]: -12%

COc1cc(Nc2nc(C)cc(-c3cnn4nc(OC)ccc34)n2)cc(C(F)(F)F)c1
% of control [9]: 100% | % of control [10]: 94% | % of control [11]: 68% | % of control [12]: 89% | % of control [13]: 100% | % of control [14]: 93% | % of control [15]: 100% | % of control [16]: 95% | % of control [17]: 77% | % of control [18]: 100%

Cc1cc(F)c(C(=O)Nc2cccc(-c3nncn3C(C)C)n2)cc1-n1cnc(C2CC2)c1
% of control [19]: 100%

COCC(=O)NC/C=C/c1ccc2ncnc(Nc3ccc(Oc4ccc(C)nc4)c(C)c3)c2c1 [CP-724714]
% of control [20]: 100%
